The text below walks through data of patent publication US5750826A, “Bradykinin B2 receptor modified transgenic non-human animals” (Merck & Co., Inc., priority 1996, dated 1998).

For test [1], the target named is T1, human B2 bradykinin receptor (Homo sapiens, UniProt P30411).
T1 construct: placing the entire B2 clone under the control of the CMV promoter; expressed in transfected cells
T1 sequence (P30411 1-364 isoform P30411-2): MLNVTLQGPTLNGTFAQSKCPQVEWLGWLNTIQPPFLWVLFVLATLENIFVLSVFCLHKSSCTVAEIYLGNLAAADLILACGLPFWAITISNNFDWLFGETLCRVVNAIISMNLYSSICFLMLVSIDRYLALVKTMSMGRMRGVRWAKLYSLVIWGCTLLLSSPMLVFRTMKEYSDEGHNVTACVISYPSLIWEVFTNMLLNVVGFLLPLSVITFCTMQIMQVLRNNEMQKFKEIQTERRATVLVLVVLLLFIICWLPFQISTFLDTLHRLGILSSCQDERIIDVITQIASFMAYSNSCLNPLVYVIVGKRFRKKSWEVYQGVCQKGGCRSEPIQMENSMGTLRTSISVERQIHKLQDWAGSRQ
Briefly: Competition binding against 100 pM [3H]BK at the cloned human B2 receptor (COS-7). Conditions: for IC50: [3H]BK binding to human B2 receptor; for competition for BK binding: COS-7; for specificity of binding (rank order): COS-7 expressed human B2 receptor. The procedure: In order to enable expression of the cDNA that encodes for the B2 bradykinin receptor, COS-7 cells were transfected using LIPOFECTIN (BRL, Gaithersburg, Md.) with 50ug/10^7 cells of the B2 receptor cDNA subcloned into the eukaryotic expression vector pcDNA I-Neo (Invitrogen). Cells were then harvested after 72 hours and the membranes containing the expressed receptor protein were prepared by scraping the cells in phosphate buffered saline solution and centrifuging for ten minutes at 500× g. The cell pellet was then resuspended and homogenized with a Polytron in 20 mM N-tris(hydroxymethyl)methyl-2-aminoethane sulfonic acid (TES,pH 6.8 at room temperature) buffer containing 1 mM 1, 10 phenanthroline. The homogenate was then centrifuged for ten minutes at 500 × g. The final membrane pellet was resuspended in assay buffer (TES plus 0.1% protease free bovine serum albumin, 5 uM MK-422 (enalaprilat; Gross et al., 1981) and 140 ug/ml bacitracin using a motor-driven teflon-glass tissue homogenizer. Protein determination was performed by the method of Bradford using bovine IgG as the standard. See Bradford, M.A. Anal. Biochem. 72, 248-254 (1976).
Binding assays were then performed to determine receptor antagonist or agonist interaction. The assays utilized in the instant invention follow the method of Manning et al., J. Pharmacol. Exp. Ther., 237, 504-512 (1986). […] (BRANDEL, Gaithersburg, Md.). The tubes were rinsed two times with 4 ml ice-cold […] and the filter bound radioactivity was quantitated by liquid scintillation counting. […] The competition and saturation experiments were analyzed using the EBDA program of McPherson. See McPherson, G.A. J Pharmacol. Methods 14, 213-218 (1985).

For test [2], the target named is T2, mouse B2 bradykinin receptor (Mus musculus, UniProt P32299).
T2 construct: The PCR product begins 99 bp upstream of the initiator methionine codon and ends 49 bp downstream of the stop codon; expressed in transfected cells; host or cells: COS-7 (transient), pcDNAI-Neo
T2 sequence (P32299 1-366 isoform P32299-2): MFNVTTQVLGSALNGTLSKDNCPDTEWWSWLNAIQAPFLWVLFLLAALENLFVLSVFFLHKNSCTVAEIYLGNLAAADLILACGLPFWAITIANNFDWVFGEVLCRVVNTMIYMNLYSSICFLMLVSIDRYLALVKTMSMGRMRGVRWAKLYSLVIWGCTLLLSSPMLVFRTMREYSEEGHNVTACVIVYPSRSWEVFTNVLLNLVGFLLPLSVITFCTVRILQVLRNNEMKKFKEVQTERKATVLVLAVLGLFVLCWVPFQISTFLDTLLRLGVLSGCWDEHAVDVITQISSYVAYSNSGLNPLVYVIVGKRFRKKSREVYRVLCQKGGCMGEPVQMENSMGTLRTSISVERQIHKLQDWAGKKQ
Briefly: Competition binding using 100 pM [3H]BK at the expressed mouse B2 bradykinin receptor. The note with it: for affinity: expressed mouse B2 receptor, 100 pM [3H]BK. How it is done:
(§1) Binding assays were then performed to determine receptor antagonist or agonist interaction. The assays utilized in the instant invention follow the method of Manning et al., J. Pharmacol. Exp. Ther., 237, 504-512 (1986). [^3 H]BK at various concentrations was incubated for 60 minutes at 25° C. with approximately 50ug membrane protein from COS-7 cells in a volume of 1 ml. The assay was terminated by filtration over Whatman GF/B filters presoaked for 3 hours in 0.1 % polyethyleneimine using a BRANDEL M-24 CELL […] (BRANDEL, Gaithersburg, Md.). The tubes were rinsed two times with 4 ml ice-cold […] and the filter bound radioactivity was quantitated by liquid scintillation counting. Nonspecific binding was determined by performing incubation in the presence of 1 uM BK and generally represents less than 5% of the total binding at 100pM ^3 H]BK. Competition binding experiments, in the presence of 100pM[^3 H]BK, were performed with varying concentrations of the test compound(s). The competition and saturation experiments were analyzed using the EBDA program of McPherson. See McPherson, G.A. J Pharmacol. Methods 14, 213-218 (1985).
To verify the pharmacological properties of the mouse bradykinin B2 receptor the coding sequence of the mouse B2 bradykinin receptor was isolated by PCR (Perkin Elmer/Cetus) using a Techne thermocycler with the template being the EcoR I by Hind III genomic fragment in pSP72 and the 5' primer 5'-[…]-3' (SEQ.ID.NO.:8) and the 3' primer 5'- […]-3' (SEQ.ID.NO.:9). The PCR product was subcloned into the Hind III and Xba I sites of the eukaryotic expression vector pcDNAI-Neo (Invitrogen). The PCR product begins 99 bp upstream of the initiator methionine codon and ends 49 bp downstream of the stop codon. The DNA sequence analysis using Sequenase (US Biochemical) of the subcloned PCR product confirmed that the sequence was identical to that in the original genomic fragment.

The target in test [3] is T2, mouse B2 bradykinin receptor. Briefly: Effect of guanine nucleotides on binding of BK to membranes (mouse B2 receptor, COS-7). The note with it: increasing concentrations of guanine nucleotide. From the text: The binding of BK to membranes was reduced by increasing concentrations of GTP, guanosine 5'-O-(3-thiotriphosphate) or 5'guanylylimidodiphosphate.
The target is the same in test [4]. Put plainly: Saturation binding to whole COS cells transiently expressing the mouse B2 receptor. Conditions: single high affinity site, read-out: KD for [3H]BK. The procedure: as §1, with “[^3 H]BK at various concentrations was incubated for 60 minutes at 25° C. with approximately 50ug membrane protein from COS-7 cells in a volume of 1 ml.” left out
To verify the pharmacological properties of the mouse bradykinin B2 receptor the coding sequence of the mouse B2 bradykinin receptor was isolated by PCR (Perkin Elmer/Cetus) using a Techne thermocycler with the template being the EcoR I by Hind III genomic fragment in pSP72 and the 5' primer 5'-[…]-3' (SEQ.ID.NO.:8) and the 3' primer 5'- […]-3' (SEQ.ID.NO.:9). […]

Test [5] relates to murine AB2.1 ES cells, pBS-KO-1 transformants. Briefly: FIAU counter-selection of pBS-KO-1 ES cell transformants. The test is classed as cell-based, mouse. Conditions: FIAU 0.2 μM. The procedure:
Targeted alteration of the bradykinin B2 gene in murine ES cells The gene replacement vector used in the B2 gene disruption experiments was the pBS-KO-1 vector. When this vector recombined with the wild-type B2 allele to generate the B2 knock-out (B2 KO), the entire coding sequence for the B2 receptor was deleted (FIG. 2). The mouse embryonic stem cell line AB2.1 was electroporated with Not I -linearized pBS-KO-1 in multiple experiments. All AB2.1 ES cells were cultured on SNL feeder cells as described (Robertson, in Teratocarcinomas and embryonic stem cells, IRL Press, pp. 71-112 (1987)). Electroporations were performed with 4×10^6 ES cells and 25 μg linearized pBS-KO-l in 0.8 ml electroporation buffer (Specialty Media, Inc.) at 300v, 250 μF using a Bio-Rad Gene Pulser. ES cell transformants were selected with the antibiotic geneticin (Gibco G418: 200 μg/ml active G418), and some transformants were counter-selected with FIAU (Bristol Myers Squibb; 0.2 μM) for enhancement of homologous recombinants. Murine leukemia inhibitory factor (LIF; ESGRO, Gibco BRL, Inc.) was used at 1000 U/ml. […] G418-and FIAU-resistant ES clones were isolated by picking and growing individual colonies, and their genomic DNAs were prepared from AB2.1 5 KO-I-transformants as described (Laird et al., Nucleic Acids Res. 19:4293 (1991).

Test [6] deals with rat vas deferens. The note with it: cited from earlier work.

Where no end group is shown, it is not given here.

For [Thi^5,8,D-Phe^7 ]BK, in test [1], the IC50 amounted to 180 nM. Regarding neurotensin, in test [1] (human B2 receptor), the “competition for BK binding” value was “No competition for BK binding”. Take `N=C(N)NCCC[C@H](NC(=O)[C@@H](N)CCCCN)C(=O)N1CCC[C@H]1C(=O)N1CCC[C@H]1C(=O)NCC(=O)N[C@@H](Cc1ccccc1)C(=O)N[C@@H](CO)C(=O)N1CCC[C@H]1C(=O)N[C@@H](Cc1ccccc1)C(=O)O` [[des-Arg^10]-kallidin]: in test [2], the IC50 worked out at 25 µM and the affinity result is reported as “very low affinity”. As to `CSCC[C@H](N)C(=O)N[C@@H](CCCCN)C(=O)N[C@@H](CCCNC(=N)N)C(=O)N1CCC[C@H]1C(=O)N1CCC[C@H]1C(=O)NCC(=O)N[C@@H](Cc1ccccc1)C(=O)N[C@@H](CO)C(=O)N1CCC[C@H]1C(=O)N[C@@H](Cc1ccccc1)C(=O)N[C@@H](CCCNC(=N)N)C(=O)O` [met-lys-BK], in test [1], the “specificity of binding (rank order)” value is “BK>lys-BK>met-lys-BK”. With `N=C(N)NCCC[C@H](NC(=O)[C@H](Cc1ccccc1)NC(=O)[C@@H]1CCCN1C(=O)[C@H](CO)NC(=O)[C@H](Cc1ccccc1)NC(=O)CNC(=O)[C@@H]1CCCN1C(=O)[C@@H]1CCCN1C(=O)[C@H](CCCNC(=N)N)NC(=O)[C@@H](N)CCCCN)C(=O)O` [kallidin], in test [1], the “specificity of binding (rank order)” value is given as “BK>lys-BK>met-lys-BK”. The affinity entry in test [2] is listed as “high (subnanomolar) affinity”. As for D-Arg^0-[Hyp^2,3, Thi^5,8 D-Phe^7 ]BK, the IC50 in test [1] is 27 nM. Take “angiotensin II: peptide (DRVYIHPF; Angiotensin-2; UniProt P01019 25-32, looked up)”: in test [1] (human B2 receptor), the “competition for BK binding” value was “No competition for BK binding”. Turning to endothelin: peptide, in test [1] (human B2 receptor), the “competition for BK binding” value was “No competition for BK binding”. For the compound `Nc1nc2c(ncn2[C@@H]2O[C@H](COP(=O)(O)OP(=O)(O)NP(=O)(O)O)[C@@H](O)[C@H]2O)c(=O)[nH]1` [5'guanylylimidodiphosphate], in test [3], the “binding of BK to membranes” value is given as “reduced”. For the compound `Nc1nc2c(ncn2[C@@H]2O[C@H](COP(=O)(O)OP(=O)(O)OP(O)(O)=S)[C@@H](O)[C@H]2O)c(=O)[nH]1` [guanosine 5'-O-(3-thiotriphosphate)], the “binding of BK to membranes” value in test [3] is listed as “reduced”.

For `CC[C@H](C)[C@@H]1NC(=O)[C@H](Cc2ccc(O)cc2)NC(=O)[C@@H](N)CSSC[C@@H](C(=O)N2CCC[C@H]2C(=O)N[C@@H](CC(C)C)C(=O)NCC(N)=O)NC(=O)[C@H](CC(N)=O)NC(=O)[C@H](CCC(N)=O)NC1=O` [oxytocin], in test [1] (human B2 receptor), the “competition for BK binding” value is “No competition for BK binding”. Consider “[^3 H]BK: radioligand [3H]BK used in binding assays (RPPGFSPFR; also: tritium label; UniProt P01042 381-389, looked up)”, for which, in test [4], the Kd came to 0.2 ± 0.03 nM. Take `O=c1[nH]c(=O)n([C@@H]2O[C@H](CO)[C@@H](O)[C@@H]2F)cc1I` [FIAU, 1-(2-deoxy 2-fluoro-B-D-arabinofluranosyl)-5-iodouracil]: the “fewer background pBS-KO-1 transformants” value in test [5] is “about eleven”.

As to “angiotensin I: peptide (DRVYIHPFHL; Angiotensin-1; UniProt P01019 25-34, looked up)”, in test [1] (human B2 receptor), the “competition for BK binding” value is given as “No competition for BK binding”. `Nc1nc2c(ncn2[C@@H]2O[C@H](COP(=O)(O)OP(=O)(O)OP(=O)(O)O)[C@@H](O)[C@H]2O)c(=O)[nH]1` [GTP, guanosine triphosphate]: the “binding of BK to membranes” value in test [3] is “reduced”. As to Des-Arg^9,LeuBK: B1 antagonist, in test [1] (10 uM, human B2 receptor), the “inhibition of BK binding” value worked out at 11%. Moreover, the “antagonism of BK responses” value in test [6] (high concentrations, vas deferens) was “failed to antagonize BK responses”. For the same compound, the “pre- or postsynaptic BK like responses” value in test [6] (rat vas deferens) is “inactive”.
